Test results reported in patent US20070282004A1, “Use of a Cyclopentenone Prostaglandin for Delaying for the Onset and/or Preventing the Continuation of Labour” (Imperial College Innovations Limited, priority 2003, published 2007).
“Also recorded” adds a separate entry of the source.

Legend:
NF-κB [1] = assay: NF-κB-dependent luciferase reporter (κB.BG.Luc) in amnion cells; format: cell-based, human; conditions: L− or L+ amnion cells, treated 2 h, IL-1β 1 ng/ml 6 h
Procedure: . Values are normalised for b-gal reporter activity.
Placentae were obtained from patients at term either at elective Caesarean section prior to labour (L−) or following spontaneous labour onset and vaginal delivery (L+). Amnion cells were prepared as described in Bennett et al., (1989). Briefly, the amnion was separated from the placenta, washed 3× in PBS, cut into strips, and incubated in 0.5 mM EDTA in PBS for 15 min. The strips were washed in PBS 2× and digested with 2.5 mg/ml dispase in serum-free DMEM for 35 min at 37° C. The amnion was then shaken vigorously in DMEM, 10% FCS to dissociate the cells, the remaining strips discarded, and the cell suspension pelleted at 175 g for 10 min and cultured in DMEM, 10% FCS (Sigma), 1% L-glutamine, 1% penicillin-streptomycin.
pGL3.6κB.BG.luc was the reporter construct used to assess NF-κB-mediated transcription, while the mutant pGL3.6κBmut.luc and empty pGL3.BG.luc were used as controls (Schwarzer et al., 1998).
pGL3.6κB.BG.luc: a NF-κB-dependent reporter construct with 6 copies of the NF-κB binding site. It contains two tandem repeats of the sequence 5′-GGG GAC TTT C CC TGGGGACTTTCCCTGGGGACTTTCCC-3′, which contains three copies of the decameric NF-κB binding site (underlined) upstream of a minimal β-globin promoter driving a luciferase gene.
Cells were co-transfected with the renilla vector pRL-CMV or β-galactosidase vector pCH110 as internal controls for transfection efficiencies.

NF-κB [2] = assay: Western immunoblot of p65, p50, IκB in myometrial cell extracts; format: cell-based, human; conditions: myometrial cells; for IL-1β-induced p65 nuclear translocation: treated 2 h
Procedure: Western immunoblots of nuclear or cytosolic protein extracts from (A) myometrial cells, (B) L− amnion cells, and (C) L+ amnion cells treated with 15dPGJ2 or vehicle for 2 h±IL-1β stimulation (15 min). Blots probed with antibodies against p65, p50 or IκBα.
Western immunoblots of nuclear or cytosolic protein extracts from myometrial cells treated with PGA1 or vehicle for 2 h followed by IL-1β stimulation (15 min). Blots probed with antibodies against p65 or IκBa.
Western immunoblots of cytosolic extracts from myometrial cells (A) treated with 15dPGJ2 for 2h±IL1b for 15 min; probed for IKK, and (B) treated with […] 15dPGJ2, […] MG132 or vehicle for 2 h, ±IL-1β for 15 min; probed for IκBα.
(A) NF-κB-DNA binding was measured by EMSA in nuclear protein extracts from myometrial cells pre-treated with vehicle, 15d-PGJ2 or PGA1 for 2 h, followed by stimulation with IL-1β (1 ng/ml) for 15 min. Antibodies against p50 and p65 were used for supershift analysis. (B) Myometrial cells were transiently transfected with a NF-κB-LUC reporter and a β-gal reporter plasmid, pre-treated with vehicle or PGA1 for 2 h, and stimulated with IL-1β (1 ng/ml) for 6 h. Luciferase activity was normalized for β-gal reporter readout. Values are presented as the mean±SEM obtained for each treatment done in triplicate. Western blot analysis of nuclear p65 and p50 expression in myometrial cells treated with (C) PGA1 or (D) 15d-PGJ2 for 2 h, followed by stimulation with IL-1β (1 ng/ml) for 15 min. (E) Western blot analysis of whole cell lysates from myometrial cells treated with 15d-PGJ2 or 9,10-dihydro-15d-PGJ2 for 2 h, followed by stimulation with IL-1β (1 ng/ml) for 15 min. Membranes were probed with antibodies against p65 and Ser 536-phosphorylated p65.
Myometrial tissue was collected at term from the upper margin of uterine incision at the time of lower segment caesarean section either prior to the onset of labour (L−) or […] (L+). L+ samples were collected by Dr Mark Johnson and Dr S Soorrana at Chelsea & Westminster Hospital. Myometrial tissue was dissected, rinsed in PBS, and digested in serum-free DMEM containing 15 mg/ml collagenase 1A (Sigma), 15 mg/ml collagenase X, and 50 mg/ml bovine serum albumin for 45 min at 37° C. The cell suspension was filtered through a cell strainer, centrifuged at 400 g for 5 min, and the pellet re-suspended and plated out in DMEM, 10% FCS (Helena BioScience), 1% L-glutainine, 1% penicillin-streptomycin. Cells were used between passage numbers 1-4.
Nuclear and cytosolic protein extracts were obtained from cultured amnion cells as described by Schreiber et al (1989). For nuclear/cytosolic fractionation, confluent cell monolayers were scraped and lysed using a buffer containing 10 mM HEPES, 10 mM KCl, 0.1 mM EDTA, 0.1 mM EGTA, 2 mM DTT, 1% (v/v) NP-40 and complete protease inhibitor tablets (CPIs, Roche), diluted to manufacturer's instructions. Cell lysates were incubated on ice for 10 min and NP-40 added to a final concentration of 1% (v/v). Lysates were vortexed for 10 secs and centrifuged for 30 secs at 4° C., 12000 g. The supernatants were retained as the cytosolic protein extracts. The pellets were resuspended in buffer containing 10 mM HEPES, 10 mM KCl, 0.1 mM EDTA, 0.1 mM EGTA, 2 mM DTT, 400 mM NaCl, 1% NP-40 (v/v) and CPIs. Samples were shaken vigorously for 15 min in an ice bath. The nuclear protein extracts were obtained in the supernatant following a 5 min centrifugation at 4° C., 12000 g.
Protein samples (20-70 μg) were mixed with Laemmli sample buffer (1:1) containing β-mercaptoethanol (5%), and boiled for 5 min. Proteins were then separated by SDS-PAGE (12-14% gels) and transferred onto PVDF membrane (Amersham Pharmacia Biotech). The membranes were blocked overnight in 5% non-fat milk prepared in PBS-T buffer, at 4° C. The blots were incubated with the primary antibody in 1% non-fat milk in PBS-T buffer for 1 h, and washed three times (10 min each) in PBS-T with vigorous shaking. […]

CCCCCC=CC=C1C(=O)C=C[C@@H]1CC=CCCCC(=O)O [15d-PGJ2, 15-deoxy-Δ^12,14prostaglandin J2]
IL-1β-induced NF-κB transcriptional activity (κB.BG.Luc reporter) (NF-κB [1]): inhibited | IL-1β-induced IκBα degradation (NF-κB [2]): inhibition | IL-1β-induced IκBβ degradation (NF-κB [2]): inhibition | IL-1β-induced p50 phosphorylation (NF-κB [2]): inhibition | IκBα phosphorylation (NF-κB [2]): inhibits | Accumulation of phosphorylated IκBα (NF-κB [2]; 2 h, IL-1β 15 min): not detected | IL-1β-induced p65 nuclear translocation (NF-κB [2]; IL-1β 15 min): inhibited | IL-1β-induced p65 nuclear translocation (NF-κB [2]; IL-1β 15 min, listed as 15dPGJ2): inhibition

CCCCC[C@H](O)/C=C/[C@H]1C=CC(=O)[C@@H]1CCCCCCC(=O)O [PGA1, prostaglandin A1]
IL-1β-induced NF-κB transcriptional activity (κB.BG.Luc reporter) (NF-κB [1]): inhibited | IL-1β-induced IκBα degradation (NF-κB [2]): inhibition | Reproduction of the effects of 15d-PGJ2 on NF-κB (incl. Ser 536-phosphorylated p65) (NF-κB [2]; 2 h, IL-1β 15 min, similar in amnion epithelial cells): shares the effect of 15d-PGJ2 | IL-1β-induced p65 nuclear translocation (NF-κB [2]; IL-1β 15 min): inhibition; also recorded: inhibited
